Source: patent publication US20240174618A1, “SUBSTITUTED (2-HETEROARYLOXYPHENYL)SULFONATES, SALTS THEREOF AND THEIR USE AS HERBICIDAL AGENTS” (Bayer Aktiengesellschaft, priority 2021, published 2024)

Assays:
Type in all cases: in vivo
[1] = tested on: Abutilon theophrasti (ABUTH); test: A. Herbicidal pre-emergence efficacy, ABUTH; settings: scored visually after about 3 weeks vs untreated controls
From the text: (§1) Seeds of mono- and dicotyledonous weed plants were placed in plastic pots in sandy loam soil (doubly sown with one species each of mono- or dicotyledonous weed plants per pot) and covered with soil. The compounds of the invention, formulated in the form of wettable powders (WP) or as emulsion concentrates (EC), were then applied onto the surface of the covering soil as aqueous suspension or emulsion with addition of 0.5% additive at a water application rate of 600 liters per hectare (converted). After the treatment, the pots were placed in a greenhouse and kept under good growth conditions for the test plants. After about 3 weeks, the efficacy of the preparations was scored visually in comparison with untreated controls as percentages.
(§2) For example, • 100% efficacy=plants have died, • 0% efficacy=like untreated control plants.
(§3) Tables A1a to A12c below show the effects of selected compounds of the general formula (I) according to table 1 on various harmful plants at an application rate corresponding to 1280 g/ha or less, which were obtained by the experimental procedure mentioned above.

[2] = tested on: Echinochloa crus-galli (ECHCG); test: A. Herbicidal pre-emergence efficacy, ECHCG; settings: scored visually after about 3 weeks vs untreated controls
From the text: as §1, §2, §3

[3] = tested on: Kochia scoparia (KCHSC); test: A. Herbicidal pre-emergence efficacy, KCHSC
From the text: as §1, §2, §3

[4] = tested on: Matricaria inodora (MATIN); test: A. Herbicidal pre-emergence efficacy, MATIN
From the text: as §1, §2, §3

[5] = tested on: Poa annua (POAAN); test: A. Herbicidal pre-emergence efficacy, POAAN; settings: dosage 1280 g/ha
From the text: as §1, §2, §3

[6] = tested on: Setaria viridis (SETVI); test: A. Herbicidal pre-emergence efficacy, SETVI
From the text: as §1, §2, §3

[7] = tested on: Veronica persica (VERPE); test: A. Herbicidal pre-emergence efficacy, VERPE
From the text: as §1, §2, §3

[8] = tested on: Amaranthus retroflexus (AMARE); test: A. Herbicidal pre-emergence efficacy, AMARE
From the text: as §1, §2, §3

[9] = tested on: Kochia scoparia (KCHSC); test: B. Herbicidal post-emergence efficacy, KCHSC; settings: for Post-emergence efficacy against KCHSC in %: rated visually after about 3 weeks; for Post-emergence efficacy against KCHSC: 1280 g/ha
Protocol: (§4) Seeds of mono- and dicotyledonous weed plants were placed in plastic pots in sandy loam soil (doubly sown with in each case one species of mono- or dicotyledonous weed plants per pot), covered with soil and cultivated in a greenhouse under controlled growth conditions. 2 to 3 weeks after sowing, the test plants were treated at the one-leaf stage. The compounds of the invention, formulated in the form of wettable powders (WP) or as emulsion concentrates (EC), were applied onto the green parts of the plants as aqueous suspension or emulsion with addition of 0.5% additive at a water application rate of 600 liters per hectare (converted). After the test plants had been kept in the greenhouse under optimum growth conditions for about 3 weeks, the activity of the preparations was rated visually in comparison to untreated controls.
(§5) For example, • 100% efficacy=plants have died, • 0% efficacy=like untreated control plants
(§6) Tables B1a to B12c below show the effects of selected inventive compounds of the general formula (I) according to table 1 on various harmful plants at an application rate corresponding to 1280 g/ha or less, which were obtained by the experimental procedure mentioned above.

[10] = tested on: Veronica persica (VERPE); test: B. Herbicidal post-emergence efficacy, VERPE
Protocol: as §4, §5, §6

[11] = tested on: Amaranthus retroflexus (AMARE); test: B. Herbicidal post-emergence efficacy, AMARE
Protocol: as §4, §5, §6

[12] = tested on: Digitaria sanguinalis (DIGSA); test: A. Herbicidal pre-emergence efficacy, DIGSA; settings: scored visually after about 3 weeks vs untreated controls
From the text: as §1, §2, §3

[13] = tested on: Lolium rigidum (LOLRI); test: A. Herbicidal pre-emergence efficacy, LOLRI; settings: dosage 1280 g/ha
From the text: as §1, §2, §3

[14] = tested on: Stellaria media (STEME); test: A. Herbicidal pre-emergence efficacy, STEME
From the text: as §1, §2, §3

[15] = tested on: Abutilon theophrasti (ABUTH); test: B. Herbicidal post-emergence efficacy, ABUTH; settings: 1280 g/ha, rated visually after about 3 weeks
Protocol: as §4, §5, §6

[16] = tested on: Poa annua (POAAN); test: B. Herbicidal post-emergence efficacy, POAAN; settings: 1280 g/ha
Protocol: as §4, §5, §6

[17] = tested on: Stellaria media (STEME); test: B. Herbicidal post-emergence efficacy, STEME; settings: 1280 g/ha
Protocol: as §4, §5, §6

[18] = tested on: Echinochloa crus-galli (ECHCG); test: B. Herbicidal post-emergence efficacy, ECHCG; settings: 1280 g/ha, rated visually after about 3 weeks
Protocol: as §4, §5, §6

[19] = pre-emergence, dosage 1280 g/ha

| Structure (SMILES) | Pre-emergence efficacy against ABUTH ([1]; 1280 g/ha) [%] | Pre-emergence efficacy against ECHCG ([2]; 1280 g/ha) [%] | Pre-emergence efficacy against KCHSC ([3]; pre-emergence, dosage 320 g/ha) [%] | Pre-emergence efficacy against KCHSC [3, 19] [%] | Pre-emergence efficacy against MATIN [4, 19] [%] | Pre-emergence efficacy against POAAN [5] [%] | Pre-emergence efficacy against SETVI ([6]; dosage 320 g/ha) [%] | Pre-emergence efficacy against SETVI ([6]; dosage 1280 g/ha) [%] | Pre-emergence efficacy against VERPE in % ([7]; 320 g/ha) [%] | Pre-emergence efficacy against VERPE in % ([7]; 1280 g/ha) [%] | Pre-emergence efficacy against AMARE in % ([8]; 320 g/ha) [%] | Pre-emergence efficacy against AMARE in % ([8]; 1280 g/ha) [%] | Post-emergence efficacy against KCHSC in % ([9]; 320 g/ha) [%] | Post-emergence efficacy against KCHSC [9] [%] | Post-emergence efficacy against VERPE ([10]; 320 g/ha) [%] | Post-emergence efficacy against VERPE ([10]; 1280 g/ha) [%] | Post-emergence efficacy against AMARE ([11]; 320 g/ha) [%] | Post-emergence efficacy against AMARE ([11]; 1280 g/ha) [%] | Pre-emergence efficacy against ABUTH ([1]; 320 g/ha) [%] | Pre-emergence efficacy against LOLRI [13] [%] | other results |
| --- | --- | --- | --- | --- | --- | --- | --- | --- | --- | --- | --- | --- | --- | --- | --- | --- | --- | --- | --- | --- | --- |
| CS(=O)(=O)Oc1ccccc1Oc1ncc(Cl)cn1 [Example I-1] | 100 | 100 | 100 | 100 | 100 | 90 | 90 | 100 | 100 | 100 | 100 | 100 | 100 | 100 | 90 | 100 | 100 | 100 |  |  | Pre-emergence efficacy against MATIN ([4]; 320 g/ha, scored visually after about 3 weeks vs untreated controls): 90%; Pre-emergence efficacy against AMARE in % ([8]; 80 g/ha): 100%; Post-emergence efficacy against KCHSC in % ([9]; 80 g/ha): 90%; Post-emergence efficacy against AMARE ([11]; 80 g/ha): 100% |
| COCCS(=O)(=O)Oc1ccccc1Oc1ncc(Cl)cn1 [Example I-20] | 100 | 100 | 90 | 100 | 100 | 90 | 90 | 100 |  |  |  | 90 | 90 | 100 | 90 | 100 | 90 | 100 | 100 | 90 | Pre-emergence efficacy against ABUTH ([1]; 80 g/ha): 100%; Pre-emergence efficacy against DIGSA ([12]; 320 g/ha): 100%; Pre-emergence efficacy against DIGSA ([12]; 1280 g/ha): 100%; Pre-emergence efficacy against KCHSC ([3]; 80 g/ha, scored visually after about 3 weeks vs untreated controls): 90%; Pre-emergence efficacy against STEME ([14]; dosage 320 g/ha): 100%; Pre-emergence efficacy against STEME ([14]; dosage 1280 g/ha): 100%; Post-emergence efficacy against ABUTH in % [15]: 90%; Post-emergence efficacy against POAAN [16]: 90%; Post-emergence efficacy against STEME [17]: 100% |
| CC(C)S(=O)(=O)Oc1ccccc1Oc1ncc(Cl)cn1 [Example I-18] | 100 | 100 |  |  | 90 | 90 |  | 90 | 90 | 100 | 100 | 100 | 100 | 100 | 90 | 90 | 100 | 100 | 90 | 90 | Pre-emergence efficacy against ECHCG ([2]; 320 g/ha): 90%; Pre-emergence efficacy against STEME ([14]; dosage 1280 g/ha): 90%; Post-emergence efficacy against ABUTH in % [15]: 90%; Post-emergence efficacy against ECHCG in % [18]: 90%; Post-emergence efficacy against POAAN [16]: 90%; Post-emergence efficacy against STEME [17]: 90% |
